Test results taken from patent US20240067672A1, “FLAVONE DERIVATIVE FOR TREATING TUMORS AND USE THEREOF” (SICHUAN FUSHENGYUAN TECHNOLOGY CO., LTD, priority 2019, published 2024).
Converted amounts (≈) assume the structure as drawn. Read-outs that look alike come from different tables or passages of the source.

Columns and labels:
[1] = Determination of solubility (HPLC); type: physicochemical; conditions: for solubility: 37 °C, thermodynamic from solid
Description: About 1.325 mg of Icaritin and the synthesized derivative were weighed and dissolved in 1.5 mL methanol respectively, then diluted with methanol into solutions of 10, 20, 50, 100, 150, 200, 500 μg/mL, and filtered over an organic-system filter head of 0.45 μm into sample bottles, obtaining the samples for test. Four parts of Icaritin and the synthesized derivative were weighed respectively, 1.00 mg for each part, and placed into 1.5 mL EP tubes, and 1 mL of water, normal saline, PBS, and 0.1% Tween 80 were respectively added thereto. The obtained solutions were ultrasonicated for 1 h, placed in a water bath at 37° C. overnight, and centrifuged at 10000 r/min for 3 min to collect supernatants. The supernatants were taken into sample bottles and detected by HPLC. The experiments were conducted in parallel for three times. The detection of HPLC is conducted under conditions of a chromatographic column of waters Symmetry C18, a mobile phase of a solution of methanol and water with a ratio of 80:20, a flow rate of 1.0 mL/min, a column temperature of 30° C., a detection wavelength of 210 nm, a run time of 30 min, and a sample load of 20 μL.

HepG2 hepatoma cells = test: Anti-tumor activity in vitro, MTT method, HepG2; type: cell-based, human; conditions: for IC50 compared with Icaritin, HepG2 72 h: HepG2, 72 h after administration; for IC50 compared with Icaritin, 48 and 72 h: HepG2 and SMMC7721, 48 and 72 h; for IC50: MTT
Description: (§1) The effects of Icaritin and its derivatives on the activities of HepG2 and SMMC7721 hepatoma cells were investigated by a MTT method. […] After reaction for 48, 7 2 h, each well was added with 20 μL 5 mg/mL, of MTT solution, and incubated in a cell incubator for 3-4 h. Then the liquid in the well plates was sucked to discard. Each well was added with 150 μL of dimethyl sulfoxide (DMSO), and shaken on an enzyme-labeled instrument for 30 s at ambient temperature so that the Formazan crystals were dissolved sufficiently. The absorbance value A of each well at 570 nm was detected by the enzyme-labeled instrument, and the experiment was repeated for 3 times.

SMMC7721 hepatoma cells = test: Anti-tumor activity in vitro, MTT method, SMMC7721; type: cell-based, human; conditions: for IC50: MTT; for IC50 compared with Icaritin, SMMC7721 72 h: SMMC7721, 72 h after administration
Description: as §1

HepG2 subcutaneous tumor = test: Anti-tumor activity in vivo, HepG2 nude mouse model; design: species or system Balb/c nude mice; conditions: HepG2 nude mice, intraperitoneally every day for 21 days; for anti-tumor activity in vivo (tumor volume, FIG. 1): high and low dose; for tumor inhibition rate: equal mole of Icaritin (Icaritin 10 mg/kg)
Excerpt: According to the investigation results of solubility and cell activity, compounds 51 and 57 with high solubility and strong cell activity were selected to evaluate the anti-hepatoma activity in vivo on HepG2 nude mouse models.
Human hepatoma cells HepG2 were cultivated to logarithmic growth phase in DMEM culture medium containing 10% fetal calf serum and 1% antibiotics (penicillin and streptomycin), and digested by adding 0.25% pancreatin. After the resulting cells were cultivated in DMEM and the pancreatin was removed, they were centrifuged at 1000 rpm for 3 min. Then the cells were collected and washed with free medium until no bubbles produced as observed by naked eyes, and then ° entrifuged. After discarding the supernatant, the cells were resuspended with free medium adjust the cell density to 1×10^6/100 μL.
70 Balb/c nude mice raised in an SPF-grade animal house were taken. 100 μL, HepG2 cells were inoculated subcutaneously at the right lateral rib of each nude mouse. The growing status of nude mice was observed and the subcutaneous tumor volume was measured every day. One week after inoculation, obvious nodules were formed subcutaneously in nude mice. Administration was initiated when the tumor grew to 100 mm^3.
Tumor volume increased to 80-120 mm^3 at two weeks after inoculation, marked as Day 0. The nude mice were randomly divided into 6 groups with 6 mice in each group: a normal saline group (control), an Icaritin group (Icarian), a yyhs-i-b high dose group, a yyhs-1-b low dose group, a yyhs-2-a high dose group, and a yyhs-2-a low dose group. Administration was performed intraperitoneally every day for 21 days totally.
The administration doses were: Icarian at 10 mg/kg, compound 51 high dose at 25.30 mg/kg, low dose at 12.65 mg/kg, compound 57 high dose at 22.91 mg/kg, and low dose at 11.45 mg/kg.
From day 0, the body weights and tumor volumes of nude mice were measured once every three days, in which the maximum diameter (a) of tumor was measured first, and then the longest radial line length (b) perpendicular to the maximum diameter line was measured, in mm, thereby calculating the tumor volume according to the following formula: […]
At the end of the treatment cycle, blood was taken from orbital vein of the nude mice for later blood routine test. Then the nude mice were sacrificed using cervical vertebra dislocation. After taking photos, the tumors were stripped immediately and photographed for record. From day 0, the body weights of each group of nude mice were weighed and recorded every 3 days, and at the same time, the tumor volumes of these nude mice were recorded. The average body weight and tumor volume were calculated for each group, and the curve of body weight versus tumor volume of the nude mice was plotted according to the statistical data.
The hearts, livers, spleens, lungs, and kidneys were subsequently picked from the nude mice, soaked with 4% paraformaldehyde and then preserved at a low temperature of 4° C. for later investigation of the mechanism of the anti-tumor in vivo. The tumor volume growth curve was plotted with the time as the horizontal coordinate, and with the tumor volume as the vertical coordinate. The tumor volume growth curves and the appearance of tumors are seen in FIG. 1. The body weight changing curves of mice are plotted in FIG. 2, with the time as the horizontal coordinate, and the body weight of mice as the vertical coordinate.

[2] = aqueous with cosolvent or surfactant or cyclodextrin
[3] = Homo sapiens, HepG2, 48 h, read-out: IC50 HepG2 48 h
[4] = Homo sapiens, HepG2, 72 h, read-out: IC50 HepG2 72 h
[5] = Homo sapiens, SMMC-7721, SMMC7721, 48 h, read-out: IC50 SMMC7721 48 h
[6] = Homo sapiens, SMMC-7721, SMMC7721, 72 h, read-out: IC50 SMMC7721 72 h
[7] = HepG2, 48 h, read-out: IC50 HepG2 48 h
[8] = HepG2, 72 h, read-out: IC50 HepG2 72 h
[9] = SMMC7721, 48 h, read-out: IC50 SMMC7721 48 h
[10] = SMMC7721, 72 h, read-out: IC50 SMMC7721 72 h

| Structure (SMILES) | solubility compared with that of the bulk drug (Icaritin) [1] | solubility [1, 2] [µg/mL] | solubility ([1]; saline or isotonic) [µg/mL] | solubility ([1]; water) [µg/mL] | IC50 compared with Icaritin, HepG2 72 h (HepG2 hepatoma cells) | IC50 compared with Icaritin, 48 and 72 h (HepG2 hepatoma cells) | IC50 (HepG2 hepatoma cells; [3]) [µM] | IC50 (HepG2 hepatoma cells; [4]) [µM] | IC50 (SMMC7721 hepatoma cells; [5]) [µM] | IC50 (SMMC7721 hepatoma cells; [6]) [µM] | IC50 compared with Icaritin, SMMC7721 72 h (SMMC7721 hepatoma cells) | Solubility, 0.1% Tween 80 [1] | Solubility, Normal Saline [1] | Solubility, PBS [1] | Solubility, Water [1] | IC50 (HepG2 hepatoma cells; [7]) [µM] | IC50 (HepG2 hepatoma cells; [8]) [µM] | IC50 (SMMC7721 hepatoma cells; [9]) [µM] | IC50 (SMMC7721 hepatoma cells; [10]) [µM] | other results |
| --- | --- | --- | --- | --- | --- | --- | --- | --- | --- | --- | --- | --- | --- | --- | --- | --- | --- | --- | --- | --- |
| COc1ccc(-c2oc3c(CC=C(C)C)c(O)cc(O)c3c(=O)c2OC(=O)CCC(=O)OCCOCCOCCOCCOCc2cn(CCO[C@H]3O[C@@H](CO)[C@H](O)[C@@H](O)[C@@H]3O)nn2)cc1 [Compound 51] | improved effectively | 51.5 ± 1.23 (≈ 55.3 µM) | 47.9 ± 0.993 (≈ 51.4 µM) | 50.3 ± 1.31 (≈ 54 µM) | less than that of Icaritin | less than those of Icaritin | 14.9 ± 0.22 | 7.09 ± 0.38 | 9.3 ± 0.35 | 5.99 ± 0.49 | less than that of Icaritin | – | – | – | – | – | – | – | – | solubility ([1]; aqueous buffer): 48.5 ± 0.948 µg/mL (≈ 52 µM); anti-tumor activity in vivo (tumor volume, FIG. 1) (HepG2 subcutaneous tumor): excellent anti-tumor activities in vivo and are dose-dependent; tumor inhibition rate (HepG2 subcutaneous tumor): 95% |
| COc1ccc(-c2oc3c(CC=C(C)C)c(O)cc(O)c3c(=O)c2OC(=O)CCC(=O)OCCOCCOCCOCc2cn(C3OC(CO)C(O)C(O)C3O)nn2)cc1 (stereo not shown) [Compound 57] | improved effectively | – | – | – | less than that of Icaritin | less than those of Icaritin | – | – | – | – | less than that of Icaritin | 6.508 ± 0.742 µg/mL (≈ 7.71 µM) | 16.383 ± 0.941 µg/mL (≈ 19.4 µM) | 16.391 ± 1.029 µg/mL (≈ 19.4 µM) | 17.710 ± 1.012 µg/mL (≈ 21 µM) | 10.3 ± 1.19 | 7.91 ± 0.98 | 10.3 ± 1.19 | 5.82 ± 1.04 | anti-tumor activity in vivo (tumor volume, FIG. 1) (HepG2 subcutaneous tumor): excellent anti-tumor activities in vivo and are dose-dependent; tumor inhibition rate (HepG2 subcutaneous tumor): 90% |
| COc1ccc(-c2oc3c(CC=C(C)C)c(O)cc(O)c3c(=O)c2OC(=O)CCC(=O)OCCCCOCc2cn(CCOCCOC3OC(CO)C(O)C(O)C3O)nn2)cc1 (stereo not shown) [Compound 89] | – | – | – | – | – | – | – | – | – | – | – | Insoluble | Insoluble | Insoluble | Insoluble | > 100 | > 100 | > 100 | 35.6 ± 1.36 | – |
| COc1ccc(-c2oc3c(CC=C(C)C)c(O)cc(O)c3c(=O)c2OC(=O)CCC(=O)OCCCOCc2cn(CCO[C@H]3O[C@@H](CO)[C@H](O)[C@@H](O)[C@@H]3O)nn2)cc1 [Compound 96] | improved effectively | 16.8 ± 0.422 (≈ 20.7 µM) | 16.8 ± 0.313 (≈ 20.7 µM) | 16.9 ± 0.462 (≈ 20.7 µM) | less than that of Icaritin | less than those of Icaritin | 12 ± 0.82 | 5.56 ± 0.8 | 29.7 ± 1.23 | 6.65 ± 1.29 | less than that of Icaritin | – | – | – | – | – | – | – | – | solubility ([1]; aqueous buffer): 15.5 ± 1.31 µg/mL (≈ 19 µM) |
| COc1ccc(-c2oc3c(CC=C(C)C)c(O)cc(O)c3c(=O)c2OC(=O)CCC(=O)OCCCOCc2cn(CCOCCOC3OC(CO)C(O)C(O)C3O)nn2)cc1 (stereo not shown) [Compound 97] | – | – | – | – | – | – | – | – | – | – | less than that of Icaritin | 6.123 ± 0.931 µg/mL (≈ 7.14 µM) | 5.036 ± 1.031 µg/mL (≈ 5.87 µM) | 5.031 ± 0.901 µg/mL (≈ 5.86 µM) | 5.474 ± 0.394 µg/mL (≈ 6.38 µM) | > 100 | > 100 | > 100 | 8.68 ± 0.52 | – |
| COc1ccc(-c2oc3c(CC=C(C)C)c(O)cc(O)c3c(=O)c2OC(=O)CCC(=O)OCCN(CCOCc2cn(CCO[C@@H]3O[C@H](CO)[C@@H](O)[C@H](O)[C@H]3O)nn2)c2ccccc2)cc1 [Compound 104] | – | – | – | – | less than that of Icaritin | – | > 100 | 9.02 ± 0.27 | > 100 | 12.9 ± 1.03 | less than that of Icaritin | Insoluble | Insoluble | Insoluble | Insoluble | – | – | – | – | – |
| COc1ccc(-c2oc3c(CC=C(C)C)c(O)cc(O)c3c(=O)c2OC(=O)CCC(=O)OCCN(CCOCc2cn(CCOCCO[C@H]3O[C@@H](CO)[C@H](O)[C@@H](O)[C@@H]3O)nn2)c2ccccc2)cc1 [Compound 105] | improved effectively | 23.4 ± 1.12 (≈ 24.3 µM) | 23.9 ± 0.982 (≈ 24.9 µM) | 23.6 ± 1.23 (≈ 24.5 µM) | less than that of Icaritin | less than those of Icaritin | 15.1 ± 1.32 | 7.69 ± 0.04 | > 100 | 9.57 ± 1.2 | less than that of Icaritin | – | – | Insoluble | – | – | – | – | – | – |
